Data taken from patent US7851472B2, “Triazolophthalazines” (NYCOMED GmbH, priority 2004, dated 2010).
Entries after “also recorded” stand apart in the source; their conditions may differ. Ends that are not written are not given here.

test system: HUVEC monolayers; experiment: Inhibition of macromolecule (HRP) permeability of thrombin-stimulated HUVEC monolayers; format: cell-based, human; conditions: 10 μM Motapizone (PDE3) together with 1 μM RP73401 (PDE4), 1 U/ml thrombin
Method: The procedure to measure macromolecule permeability of endothelial cell monolayers followed the method described by Langeler & van Hinsbergh (1988) with modifications. Human umbilical vein endothelial cells were isolated from umbilical cords according to standard procedures (Jaffe et al. 1973) and cultured in endothelial cell basal medium (EBM) supplemented with 2% FCS, 0.5 ng/ml VEGF, 10 ng/ml bFGF, 5 ng/ml EGF, 20 ng/ml Long R3 IGF-1, 0.2 μg/ml hydrocortisone, 1 μg/ml ascorbic acid, 22.5 μg/ml heparin, 50 μg/ml gentamicin, 50 ng/ml amphotericin B (EGM2 purchased from Promocell GmbH, Heidelberg, Germany). At confluency, cells were trypsinized and replated at 73000 cells per well on 3 μm polycarbonate filter Transwell inserts (Costar GmbH, Bodenheim, Germany) precoated with 10 μg cm^2 −1 Fibronectin (Sigma, Taufkirchen, Germany). HUVECs were cultured in EGM2 (100 μl in the upper wells and 600 μl in the lower wells) over four days prior the experiments and medium was changed every other day. At the day of the experiment culture medium was replaced by M199 with 1% human serum albumin. Endothelial cells were preincubated with cyclic nucleotide modifiers (the selective PDE3 inhibitor motapizone, the selective PDE4 inhibitor RP73401, the cGMP generators ANP or SNP and PDE2 inhibitors) for 15 min. HUVECs were then stimulated with Thrombin (1 U ml^−1) (Sigma, Taufkichen, Germany) and horsh radish peroxidase (5 μg/ml) (Sigma, Taufkirchen, Germany) as the macromolecule marker protein was added to the upper wells. Following 1 h incubation time Transwells were removed and the activity of horsh radish peroxidase that penetrated the endothelial cell monolayer was measured in the lower wells with the 3,3′, 5,5′-tetramethylbenzidine liquid substrate system from Sigma (Taufkirchen, Germany).
In parallel, compounds according to the invention can inhibit Thrombin-induced permeability of HUVEC monolayers for horsh radish peroxidase (HRP) as a macromolecule marker. […] The concentration-dependent inhibition of HRP permeability at different concentrations was assessed from the percent inhibition in the presence and absence of the PDE2 inhibitors and in the presence of 1 μM RP73401, 10 μM Motapizone and 100 nM ANP.
HUVEC cells on 3 μm polycarbonate filters (Transwells) were preincubated with 1 μM RP73401 (to block PDE4) and 10 μM Motapizone (to block PDE3), 1 mM SNP or 100 nM ANP and 1 μM of test sample over 15 min and then stimulated with 1 U/ml thrombin. HRP passage into the lower wells was assessed after 60 min.

For COc1ccc(C(=O)Nc2c(Cl)cncc2Cl)cc1OC1CCCC1 [RP73401, reference compound], which “Thrombin-induced increase of HRP permeability (hyperpermeability)” value is on record?
The value was “completely abolished; also recorded: completely blocked”.

Which “Thrombin-induced increase of HRP permeability (hyperpermeability)” value does the source give for CC1CC(=O)NN=C1c1cc(-n2ccnc2)cs1 (centres unmarked) [Motapizone, reference compound] here?
The value was “completely abolished; also recorded: completely blocked”.

same assay, conditions: ANP (100 nM) or SNP (1 mM) in additional presence of 10 μM Motapizone and 1 μM RP73401

Which “Effect on the inhibition of permeability by PDE3 and 4 inhibition” value does the source give for “ANP: cGMP generator used to augment cGMP and activate PDE2 (SLRRSSCFGGRMDRIGAQSGLGCNSFRY; ends and bridges not checked; cysteine pairing not given here; UniProt P01160 124-151, looked up) [reference compound]” here?
Its value is “partially reversed”.

same assay, conditions: Homo sapiens, 1 h; HUVEC, 1 μM RP73401, 10 μM Motapizone, 1 mM SNP or 100 nM ANP, 1 U/ml thrombin, HRP passage after 60 min; read-out: Inhibition of SNP- or ANP-induced permeability, −log IC50 (converted)

Which IC50 does the source give for CNC(=O)c1ccc(Nc2nn3c(-c4ccc(OC)cc4)nnc3c3ccccc23)cc1 [Compound 85, 4-[3-(4-Methoxy-phenyl)-[1,2,4]triazolo[3,4-a]phthalazin-6-ylamino]-N-methyl-benzamide] here?
The IC50 was 2 to 63.1 nM.

With COCC(=O)Nc1ccc(Nc2nn3c(-c4ccc(OC)cc4)nnc3c3ccccc23)cc1 [Compound 4, 2-Methoxy-N-{4-[3-(4-methoxy-phenyl)-[1,2,4]triazolo[3,4-a]phthalazin-6-ylamino]-phenyl}-acetamide] as the compound, how does the IC50 read?
The IC50 was 2 to 63.1 nM.

With COc1ccc(-c2nnc3c4ccccc4c(Nc4cccc(NC(=O)C5CC5)c4)nn23)cc1 [Compound 38, Cyclopropanecarboxylic acid {3-[3-(4-methoxy-phenyl)-[1,2,4]triazolo[3,4-a]phthalazin-6-ylamino]-phenyl}-amide] as the compound, how does the IC50 read?
The IC50 was 2 to 63.1 nM.

For COc1ccc(-c2nnc3c4ccccc4c(Nc4cccc(NC(=O)C5CCN(C(C)=O)CC5)c4)nn23)cc1 [Compound 54, 1-Acetyl-piperidine-4-carboxylic acid {3-[3-(4-methoxy-phenyl)-[1,2,4]triazolo[3,4-a]phthalazin-6-ylamino]-phenyl}-amide], which IC50 is on record?
The IC50 was 2 to 63.1 nM.

With O=C(Nc1ccc(Nc2nn3c(-c4ccccc4Br)nnc3c3ccccc23)cc1)C1CCCCN1 (centres unmarked) [Compound 30, Piperidine-2-carboxylic acid {4-[3-(2-bromo-phenyl)-[1,2,4]triazolo[3,4-a]phthalazin-6-ylamino]-phenyl}-amide] as the compound, how does the IC50 read?
Its IC50 is 2 to 63.1 nM.

For COc1ccc(-c2nnc3c4ccccc4c(Nc4ccc(NC(=O)CN5CCOCC5)cc4)nn23)cc1 [Compound 25, N-{4-[3-(4-Methoxy-phenyl)-[1,2,4]triazolo[3,4-a]phthalazin-6-ylamino]-phenyl}-2-morpholin-4-yl-acetamide], which IC50 is on record?
The IC50 was 2 to 63.1 nM.

For COc1ccc(-c2nnc3c4ccccc4c(Nc4ccc(NC(=O)C(F)(F)F)cc4)nn23)cc1 [Compound 17, 2,2,2-Trifluoro-N-{4-[3-(4-methoxy-phenyl)-[1,2,4]triazolo[3,4-a]phthalazin-6-ylamino]-phenyl}-acetamide], which IC50 is on record?
Its IC50 is 2 to 63.1 nM.

Which IC50 does the source give for COc1ccc(-c2nnc3c4ccccc4c(Nc4ccc(NC(=O)c5c[nH]cn5)cc4)nn23)cc1 [Compound 11, 1H-Imidazole-4-carboxylic acid {4-[3-(4-methoxy-phenyl)-[1,2,4]triazolo[3,4-a]phthalazin-6-ylamino]-phenyl}-amide] here?
The IC50 was 2 to 63.1 nM.

With COCCC(=O)Nc1ccc(Nc2nn3c(-c4ccc(OC)cc4)nnc3c3ccccc23)cc1 [Compound 5, 3-Methoxy-N-{4-[3-(4-methoxy-phenyl)-[1,2,4]triazolo[3,4-a]phthalazin-6-ylamino]-phenyl}-propionamide] as the compound, how does the IC50 read?
The IC50 was 2 to 63.1 nM.

For COc1ccc(-c2nnc3c4ccccc4c(Nc4ccc(NC(=O)c5ccoc5)cc4)nn23)cc1 [Compound 21, Furan-3-carboxylic acid {4-[3-(4-methoxy-phenyl)-[1,2,4]triazolo[3,4-a]phthalazin-6-ylamino]-phenyl}-amide], which IC50 is on record?
The IC50 was 2 to 63.1 nM.

With COc1ccc(-c2nnc3c4ccccc4c(Nc4ccc(NC(=O)C5CCCCN5)cc4)nn23)cc1 (centres unmarked) [Compound 12, Piperidine-2-carboxylic acid {4-[3-(4-methoxy-phenyl)-[1,2,4]triazolo[3,4-a]phthalazin-6-ylamino]-phenyl}-amide] as the compound, how does the IC50 read?
Its IC50 is 2 to 63.1 nM.

For COc1ccc(-c2nnc3c4ccccc4c(Nc4ccc(NC(=O)C5CC5)cc4)nn23)cc1 [Compound 18, Cyclopropanecarboxylic acid {4-[3-(4-methoxy-phenyl)-[1,2,4]triazolo[3,4-a]phthalazin-6-ylamino]-phenyl}-amide], which IC50 is on record?
Its IC50 is 2 to 63.1 nM.

test system: not given; experiment: not given; conditions: not given

Which melting point does the source give for CNC(=O)c1cccc(Nc2nn3c(-c4ccc(OC)cc4)nnc3c3ccccc23)c1 [Compound 110, 3-[3-(4-Methoxyphenyl)-[1,2,4]triazolo[3,4-a]phthalazin-6-ylamino]-N-methylbenzamide] here?
Its melting point is 316 °C.

With COc1ccc(-c2nnc3c4ccccc4c(Nc4ccc(NC(=O)c5ccccc5)cc4)nn23)cc1 [Compound 33, N-{4-[3-(4-Methoxyphenyl)-[1,2,4]triazolo[3,4-a]phthalazin-6-ylamino]-phenyl}-benzamide] as the compound, how does the melting point read?
Its melting point is 323 °C.

Which melting point does the source give for COc1ccc(-c2nnc3c4ccccc4c(Nc4ccc(N)cc4)nn23)cc1 [Compound 1, N-[3-(4-Methoxyphenyl)-[1,2,4]triazolo[3,4-a]phthalazin-6-yl]-benzene-1,4-diamine] here?
Its melting point is 295 °C.

For COc1ccc(-c2nnc3c4ccccc4c(Nc4cccc(NC(C)=O)c4)nn23)cc1 [Compound 66, N-{3-[3-(4-Methoxyphenyl)-[1,2,4]triazolo[3,4-a]phthalazin-6-ylamino]-phenyl}-acetamide], which melting point is on record?
The melting point was 295 °C.

With COc1ccc(-c2nnc3c4ccccc4c(Nc4cccc(C(N)=O)c4)nn23)cc1 [Compound 109, 3-[3-(4-Methoxyphenyl)-[1,2,4]triazolo[3,4-a]phthalazin-6-ylamino]-benzamide] as the compound, how does the melting point read?
The melting point was 296 °C.
